± gives the expanded uncertainty stated by the source.
Details: Crystal; visual observation

Normal melting temperature: 276.50 ± 0.9 °C
Compound: [Cl-].c1ccc([P+](c2ccccc2)(c2ccccc2)c2ccccc2)cc1 [tetraphenylphosphonium chloride]

Reference: the NIST ThermoML archive (doi:10.1021/acs.jced.5b00770)
